Test results as given in patent publication US7115707B2, “Amino acid sequences capable of facilitating penetration across a biological barrier” (Chiasma, Inc., priority 2002, dated 2006).
Several values for one entry are separate records, joined by “and”; a condition that tells them apart may be missing. Equal entries are not always repeated.

Experiments:
[1] = Insulin translocation with BKC as counter ion: blood glucose levels after i.p. or rectal administration (FIG. 4, Table 9); format: in vivo, male SD rats; conditions: rectal administration, rats, BKC counter ion (FIG. 4)
Method: (§1) SEQ ID NO: 36 (also called IBW-002V2) was hydrophobized via acylation of the free amino groups of the two lysine residues at the C-terminus of the penetrating peptide with a myristoyl. Acylation with myristoyl was achieved by incubating the peptide with myristoyl chloride in a molar ratio of 1:10, under basic pH conditions in the presence of appropriate solvents (benzyl benzoate and di-methyl formamide, with 1% bicarbonate). The hydrophobized peptide was then incorporated into the penetration composition, which further contained a lyophilizate of (1) insulin, (2) the counter cation Benzalkonium Chloride (BKC), and (3) phytic acid at a ratio of 1:0.5:0.5. Additional components of the penetration composition are specified in Table 8.
Twelve male SD rats, 160–190 gr, were deprived of food, 18 hours prior to the experiment. The animals were divided into groups. The preparations were administered as follows: Rats #1,2-rectal PBS 200 ul, rats #3,4-rectal 200 ul penetration composition as specified above without peptide (5 IU insulin), rat #5-i.p. 200 ul penetration composition with peptide (1 IU insulin), rats #6,7-rectal 200 ul penetration composition with peptide (5 IU insulin). Blood glucose levels were measured at various time intervals post administration, in blood samples drawn from the tip of the tail. Glucose levels were plotted against time post insulin administration (See FIG. 4).

[2] = Heparin translocation: clotting time after rectal administration of penetration composition; format: in vivo, male BALB/c mice; conditions: for Clotting time, measured at follow times after injection: 5 min / Clotting time, measured at follow times after injection: 15 min / Clotting time, measured at follow times after injection: 30 min / Clotting time, measured at follow times after injection: 60 min / Clotting time, measured at follow times after injection: 90 min / Clotting time, measured at follow times after injection: 120 min / Clotting time, measured at follow times after injection: 150 min / Clotting time, measured at follow times after injection: 0: rectal 100 μl/mouse, heparin 10 mg/ml composition, one mouse per line; for Clotting time, measured at follow times after injection: 60 min / Clotting time, measured at follow times after injection: 90 min / Clotting time, measured at follow times after injection: 120 min / Clotting time, measured at follow times after injection: 150 min: * = clotting appeared but did not progress
Method: as §1, with “36” for “36 (also called IBW-002V2)”, “heparin, and” for “a lyophilizate of (1) insulin, (2)”, “1-butyl-3-methylimidazolium chloride (BMIC).” for “Benzalkonium Chloride (BKC), and (3) phytic acid at a ratio of 1:0.5:0.5.”, “5.” for “8.”
Four male BALB/c mice, 9–10 weeks old, were deprived of food, 18 hours prior to the experiment. The mice were anesthetized by i.p. injection of 0.05 ml of a mixture of 0.15 ml xylazine+0.85 ml of ketamin. The penetration composition was then rectally administered to the mice, 100μl/mouse, using a plastic tip covered with a lubricant. Penetration was assessed via measurement of clotting time, at different time intervals after heparin administration. Five minutes post administration the tip of the tail was cut and a 50 μl blood sample was drawn into a glass capillary. The capillary was broken at different time intervals, until clot formation was observed. This was repeated at 15, 30, 60, 90, 120 and 150 minutes post administration. The animals were subsequently sacrificed.
In similar experiments, a control peptide (SEQ ID NO:16), lacking the penetrating peptide-sequence, was similarly hydrophobized and incorporated into the penetration composition of Table 5 and then rectally administered to the mice.

[3] = Insulin translocation with HMIC as counter ion: blood glucose levels after i.p. or rectal administration (FIG. 3); format: in vivo, male BALB/c mice; conditions: 70 ul/mouse, 0.2 IU insulin
Method: SEQ ID NO: 36 (also called IBW-002V2) and SEQ ID NO: 16 (also called IBW-001) were hydrophobized via acylation of the free amino groups of the two lysine residues at the C-terminus of the penetrating peptides with a myristoyl. Acylation with myristoyl was achieved by incubating the peptide with myristoyl chloride in a molar ratio of 1:10, under basic pH conditions in the presence of appropriate solvents (benzyl benzoate and di-methyl formamide, with 1% bicarbonate). The hydrophobized peptides were then incorporated into the penetration composition, which further contained insulin, and the counter cation 1-hexyl-3-methylimidazolium chloride (HMIC). Additional components of the penetration composition are specified in Table 7.
Eight male BALB/c mice, 9–10 weeks old, were deprived of food, 18 hours prior to the experiment. The animals were divided into 4 groups. Each preparation was administered to 2 groups of mice either i.p. (70 ul/mouse, containing 0.2 IU insulin) or rectal (70 ul/mouse, containing 0.2 IU insulin). Blood glucose levels were measured at various time intervals post administration, in blood samples drawn from the tip of the tail. Glucose levels were plotted against time post insulin administration (See FIG. 3).

Row | Substance | blood glucose levels [1] | Clotting time, measured at follow times after injection: 5 min [2] | Clotting time, measured at follow times after injection: 15 min [2] | Clotting time, measured at follow times after injection: 30 min [2] | Clotting time, measured at follow times after injection: 60 min [2] | Clotting time, measured at follow times after injection: 90 min [2] | Clotting time, measured at follow times after injection: 120 min [2] | Clotting time, measured at follow times after injection: 150 min [2] | Clotting time, measured at follow times after injection: 0 [2] | blood glucose levels ([3]; i.p.) | blood glucose levels ([3]; rectal) | average clotting time ([2]; rectal, heparin composition of Table 5, compared to the full conjugate of the penetrating peptide)
1 | AcMYYDITLALAGICQSARLVQQLAGGGKGGKNH2 (Ac-MYYDITLALAGICQSARLVQQLAGGGKGGK-NH2) [SEQ ID NO: 36, penetrating peptide] | dropped gradually and significantly | 1′ (2×) and 2′ (2×) | 1.5′ and 3′ and 1′ (2×) | 1.5′ (2×) and 2′ and 3′ | 8′* and 9′* and 2.5′ and 6′ | 9′* (2×) and 7′* and 5′ | 15′* and 7′* and 3′ and 8′* | 17′* and 9′* and 4′ and 6′ | 1.5′ (2×) and 1′ and 2.5′ | dropped gradually and significantly | dropped gradually and significantly | 
2 | GGKGGK (Linker) [SEQ ID NO: 16, reference compound] |  | 1′ | 1′ | 2′ | 5′ | 4′ | 2′ | 3′ | 1′ | significant drop | No change | only slightly elongated
